From BindingDB's records for doi:10.1016/j.bmcl.2005.05.101 (Glaxosmithkline, 2005)
pIC50, pKi: −log10 of the molar value.

How the values were obtained:
[1] = target: T1, Dimer of Gag-Pol polyprotein [501-599,Q508K,L534I,L564I,C568A,C596A] (Human immunodeficiency virus 1, UniProt P03367, C568A/C596A/L534I/L564I/Q508K); experiment: Protease Inhibition Assay
T1 construct: 501-599
Procedure: The Ki values were determined using fluorogenic substrate, 2-(aminobenzoyl)-Thr-Ile-Nle-Phe(p-NO2)-Gln-ArgNH2. A standard curve relating changes in fluorescent intensity to changes in concentration of product was used to convert fluorescent changes into molar velocities. The amount of cleavage was determined by HPLC.

[2] = target: T1, Dimer of Gag-Pol polyprotein [501-599,Q508K,L534I,L564I,C568A,C596A]; experiment: Protease Inhibition Assay; details: pH 6.8; 25 °C

Work on `O=C(N[C@@H](Cc1ccccc1)[C@H](O)CN(OC1CCCCC1)S(=O)(=O)c1ccc2c(c1)OCO2)O[C@H]1CO[C@H]2OCC[C@H]21` [(3R,3aS,6aR)-hexahydrofuro[2,3-b]furan-3-yl N-[(2S,3R)-4-[2H-1,3-benzodioxole-5-(cyclohexyloxy)sulfonamido]-3-hydroxy-1-phenylbutan-2-yl]carbamate] yielded a pKi [1] of over 11.30.

`O=C(N[C@@H](Cc1ccccc1)[C@H](O)CN(OC1CCCC1)S(=O)(=O)c1ccc2c(c1)OCO2)O[C@H]1CO[C@H]2OCC[C@H]21` [(3R,3aS,6aR)-hexahydrofuro[2,3-b]furan-3-yl N-[(2S,3R)-4-[2H-1,3-benzodioxole-5-(cyclopentyloxy)sulfonamido]-3-hydroxy-1-phenylbutan-2-yl]carbamate] showed a pKi [1] of over 11.30.

`Nc1cccc(S(=O)(=O)N(C[C@@H](O)[C@H](Cc2ccccc2)NC(=O)O[C@H]2CO[C@H]3OCC[C@H]32)OC2CCCC2)c1` [(3R,3aS,6aR)-hexahydrofuro[2,3-b]furan-3-yl N-[(2S,3R)-4-[(3-aminobenzene)(cyclopentyloxy)sulfonamido]-3-hydroxy-1-phenylbutan-2-yl]carbamate] was tested, and the pKi [1] was over 11.30.

`Nc1ccc(S(=O)(=O)N(C[C@@H](O)[C@H](Cc2ccccc2)NC(=O)O[C@H]2CO[C@H]3OCC[C@H]32)OC2CCCC2)cc1` [(3R,3aS,6aR)-hexahydrofuro[2,3-b]furan-3-yl N-[(2S,3R)-4-[(4-aminobenzene)(cyclopentyloxy)sulfonamido]-3-hydroxy-1-phenylbutan-2-yl]carbamate] gave a pKi [1] of over 11.30.

`O=C(N[C@@H](Cc1ccccc1)[C@H](O)CN(OC1CCCCC1)S(=O)(=O)c1ccc2c(c1)OCCO2)O[C@H]1CO[C@H]2OCC[C@H]21` [(3R,3aS,6aR)-hexahydrofuro[2,3-b]furan-3-yl N-[(2S,3R)-4-[(cyclohexyloxy)(2,3-dihydro-1,4-benzodioxine-6-)sulfonamido]-3-hydroxy-1-phenylbutan-2-yl]carbamate] was tested, and the pKi [1] was over 11.30.

With `O=C(N[C@@H](Cc1ccccc1)[C@H](O)CN(OC1CCCCC1)S(=O)(=O)c1ccc(O)cc1)O[C@H]1CO[C@H]2OCC[C@H]21` [(3R,3aS,6aR)-hexahydrofuro[2,3-b]furan-3-yl N-[(2S,3R)-4-[(cyclohexyloxy)(4-hydroxybenzene)sulfonamido]-3-hydroxy-1-phenylbutan-2-yl]carbamate] the pKi [1] was over 11.30.

In the case of `COc1ccc(S(=O)(=O)N(C[C@@H](O)[C@H](Cc2ccccc2)NC(=O)O[C@H]2CCOC2)OC2CCCC2)cc1` [(3S)-oxolan-3-yl N-[(2S,3R)-4-[(cyclopentyloxy)(4-methoxybenzene)sulfonamido]-3-hydroxy-1-phenylbutan-2-yl]carbamate], the pKi ([1]; pH 6.8, 25 °C) was 9.72 and the pIC50 [2] was 6.13.

Work on `COc1ccc(S(=O)(=O)N(C[C@@H](O)[C@H](Cc2ccccc2)NC(=O)[C@@H](NC(=O)c2ccc3ccccc3n2)C(N)=O)OC2CCCC2)cc1` [N-alkoxysulfonamide analog entry j] yielded a pKi ([1]; pH 6.8, 25 °C) of over 11.30 and a pIC50 [2] of 7.62.

With `COc1ccc(S(=O)(=O)N(C[C@@H](O)[C@H](Cc2ccccc2)NC(=O)O[C@H]2CO[C@H]3OCC[C@H]32)OC2CCCC2)cc1` [N-alkoxysulfonamide analog entry k] the pKi ([1]; pH 6.8, 25 °C) was over 11.30 and the pIC50 [2] was 8.22.

Work on `O=C(N[C@@H](Cc1ccccc1)[C@H](O)CN(OC1CCCC1)S(=O)(=O)c1ccc(O)cc1)O[C@H]1CO[C@H]2OCC[C@H]21` [N-alkoxysulfonamide analog entry n] yielded a pKi [1] of over 11.30.

In the case of `O=C(N[C@@H](Cc1ccccc1)[C@H](O)CN(OC1CCCC1)S(=O)(=O)c1ccc2c(c1)OCCO2)O[C@H]1CO[C@H]2OCC[C@H]21` [N-alkoxysulfonamide analog entry p], the pKi [1] was over 11.30.

Work on `COc1ccc(S(=O)(=O)N(C[C@@H](O)[C@H](Cc2ccccc2)NC(=O)O[C@H]2CO[C@H]3OCC[C@H]32)OC2CCCCC2)cc1` [N-alkoxysulfonamide analog entry q] yielded a pKi [1] of over 11.30.

`COC(=O)N[C@H](C(=O)N[C@@H](Cc1ccccc1)[C@H](O)CN(OC1CCCC1)S(=O)(=O)c1ccc(OC)cc1)C(C)(C)C` [methyl N-[(1S)-1-{[(2S,3R)-4-[(cyclopentyloxy)(4-methoxybenzene)sulfonamido]-3-hydroxy-1-phenylbutan-2-yl]carbamoyl}-2,2-dimethylpropyl]carbamate] was tested, and the pIC50 [2] was 6.69.
